What was measured:
DERL-7 (IL-2 2.5 ng/mL) [1] = assay: drug sensitivity score (DSS) (DSS units); higher = more sensitive; extreme values may be limits of the assay; conditions: 72 h
KHYG-1 (IL-2 2.5 ng/mL) [2] = assay: as above; conditions: 72 h
YT (IL-2 2.5 ng/mL) [3] = assay: as above; conditions: 72 h
NKL (IL-2 2.5 ng/mL) [4] = assay: as above; conditions: 72 h
SNK-6 (IL-2 2.5 ng/mL) [5] = assay: as above; conditions: 72 h
NK-YS (IL-2 2.5 ng/mL) [6] = assay: as above; conditions: 72 h
[7] = system: normal primary NK cells, pool 3 (3 donors) (IL-2 2.5 ng/mL); assay: as above; conditions: 72 h
[8] = system: normal primary NK cells, pool 1 (3 donors) (IL-2 2.5 ng/mL); assay: as above; conditions: 72 h
[9] = system: normal primary NK cells, pool 1 (3 donors), resting (IL-2 0 ng/mL); assay: as above; conditions: 72 h
IMC-1 (IL-2 20 ng/mL) [10] = assay: as above; conditions: 72 h
NK-92 (IL-2 2.5 ng/mL) [11] = assay: as above; conditions: 72 h
[12] = system: normal primary NK cells, pool 2 (3 donors) (IL-2 2.5 ng/mL); assay: as above; conditions: 72 h
KAI3 (IL-2 2.5 ng/mL) [13] = assay: as above; conditions: 72 h
[14] = system: normal NK cells expanded with K562-aAPC; assay: percent inhibition of viability; higher = more inhibition; conditions: 72 h, IL-2 2.5 ng/mL
Experimental: (§1)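 Drug sensitivity and resistance testing on K562-aAPC-expanded normal NK cells: 5 concentrations (10-fold steps over a 10,000-fold range), 72 h at 37 °C, viability by CellTiter-Glo normalised to DMSO and benzethonium chloride controls; DSS from the fitted curve.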

DERL-7 (IL-2 2.5 ng/mL) [15] = assay: as above; conditions: 72 h
KHYG-1 (IL-2 2.5 ng/mL) [16] = assay: as above; conditions: 72 h
YT (IL-2 2.5 ng/mL) [17] = assay: as above; conditions: 72 h
NKL (IL-2 2.5 ng/mL) [18] = assay: as above; conditions: 72 h
SNK-6 (IL-2 2.5 ng/mL) [19] = assay: as above; conditions: 72 h
NK-YS (IL-2 2.5 ng/mL) [20] = assay: as above; conditions: 72 h
[21] = system: normal primary NK cells, pool 3 (3 donors) (IL-2 2.5 ng/mL); assay: as above; conditions: 72 h
[22] = system: normal primary NK cells, pool 1 (3 donors) (IL-2 2.5 ng/mL); assay: as above; conditions: 72 h
[23] = system: normal primary NK cells, pool 1 (3 donors), resting (IL-2 0 ng/mL); assay: as above; conditions: 72 h
IMC-1 (IL-2 20 ng/mL) [24] = assay: as above; conditions: 72 h
NK-92 (IL-2 2.5 ng/mL) [25] = assay: as above; conditions: 72 h
[26] = system: normal primary NK cells, pool 2 (3 donors) (IL-2 2.5 ng/mL); assay: as above; conditions: 72 h
KAI3 (IL-2 2.5 ng/mL) [27] = assay: as above; conditions: 72 h
[28] = system: normal NK cells expanded with K562-aAPC; assay: drug sensitivity score (DSS) (DSS units); higher = more sensitive; extreme values may be limits of the assay; conditions: 72 h; IL-2 2.5 ng/mL
Experimental: as §1

CCC(C)(C)C(=O)O[C@H]1C[C@@H](C)C=C2C=C[C@H](C)[C@H](CC[C@@H]3C[C@@H](O)CC(=O)O3)[C@H]21 [Simvastatin] (max concentration tested 10000 nM)
Conditions	drug sensitivity score
DERL-7 (IL-2 2.5 ng/mL) [1]	0
IMC-1 (IL-2 20 ng/mL) [10]	2.48
KAI3 (IL-2 2.5 ng/mL) [13]	0.61
KHYG-1 (IL-2 2.5 ng/mL) [2]	0
NK-92 (IL-2 2.5 ng/mL) [11]	0
NK-YS (IL-2 2.5 ng/mL) [6]	4.82
NKL (IL-2 2.5 ng/mL) [4]	4.74
SNK-6 (IL-2 2.5 ng/mL) [5]	0
YT (IL-2 2.5 ng/mL) [3]	1.26
[7]	0
[8]	0
[9]	0.04
[12]	1.89
[28]	0

percent inhibition of viability [%]
Conditions	1 nM	10 nM	100 nM	1000 nM	10000 nM
DERL-7 (IL-2 2.5 ng/mL) [15]	-1.97	-3.51	4.88	4.07	10.3
IMC-1 (IL-2 20 ng/mL) [24]	-0.2	-3.36	3.54	3.84	38.1
KAI3 (IL-2 2.5 ng/mL) [27]	3.02	-8.09	-7.7	-3.05	22.5
KHYG-1 (IL-2 2.5 ng/mL) [16]	2.27	-0.82	3.03	5.63	11.2
NK-92 (IL-2 2.5 ng/mL) [25]	-8.62	-9.55	2.91	-5.14	-1.54
NK-YS (IL-2 2.5 ng/mL) [20]	-1.72	2.03	2	6.51	68.6
NKL (IL-2 2.5 ng/mL) [18]	-16.6	-8.92	0.63	6	68.9
SNK-6 (IL-2 2.5 ng/mL) [19]	4.57	-0.33	6.13	-5.3	1.07
YT (IL-2 2.5 ng/mL) [17]	0.42	-0.1	0.72	2.62	23.9
[14]	0.17	-4.47	-1.19	-2.06	6.89
[21]	-9.67	-10.8	-5.99	4.87	2.32
[22]	-7.84	9.33	-16.5	-3.95	8.72
[23]	-0.52	-1.88	-12.8	-6.51	13.3
[26]	-9.03	-7.28	-6.35	14.3	19.6

— the supplement of paper PMC5908809
